Laboratory results: patent publication US20230016007A1, “SOLUTIONS AND METHODS FOR FORMING AN EXOGENOUS FLEXIBLE FILM, WHICH INCLUDES A SUPPLEMENTAL COMPONENT, ON A PLANT AND PLANTS INCLUDING THE EXOGENOUS FLEXIBLE FILM” (Cultiva, LLC, priority 2017, published 2023)

System: grey mold (Botrytis cinerea)
Experiment: grey mold on Frontelis strawberries 7 days post-harvest (FIG. 11)
Procedure: The four groups were evaluated for infestation with grey mold 7 days post-harvest.

CC1(C(=O)Nc2ccc(O)c(Cl)c2Cl)CCCCC1 [Fenhexamid]
infestation with grey mold: exhibited at least some infestation
